Experiment [1] concerns Saccharomyces cerevisiae. Nature of the experiment: Growth inhibition of S. cerevisiae control strain by diferulates. Format: cell-based. The settings on record: for bioactivity against S. cerevisiae: 1 mg/mL. Here is the method:
The diferulate compounds tested were synthesized as described by Lu et al. (2012) and resuspended in DMSO. Caspofungin, nikkomycin Z, and MMS were purchased from Sigma-Aldrich. Echinocandin B was a gift from O. Kondo (Chugai Pharmaceuticals, Tokyo, Japan). Micafungin was provided by Astellas Pharma. Diferulates were initially screened at a concentration of 1 mg/mL to determine bioactivity. Cells of Saccharomyces cerevisiae (MATα pdr1Δ::natMX pdr3Δ::KLURA3 snq2Δ::KI.LEU2 can1Δ::STE2pr-Sp_his5 lyp1Δ his3Δ1 leu2Δ0 ura3Δ0 met15Δ0), referred to as the control strain, were grown in 200-μL cultures at 30° C. in YPD with a drug or DMSO control. Plates were read on a TECAN M1000 over a 48-h growth period. The specific growth rate was calculated using GCAT analysis software (https://gcat3-pub.glbrc.org/) (Sato et al. 2014). When presented, IC50 values for growth rate inhibition were calculated from triplicate eight-point dose curves and SigmaPlot 12.0. When presented, error bars are means±SEs of at least three replicates.

For experiment [2], the system named is Saccharomyces cerevisiae. Nature of the experiment: Synergy screening. The format is cell-based. Here is the method:
To test for synergy, a 6×6-dose matrix was initially used to identify potentially synergistic dose combinations, and these points were then confirmed in triplicate. Cultures (200 μL) were grown with combinations of poacic acid (125 μg/mL), caspofungin (12.5 ng/mL), and fluconazole (3.8 μg/mL), and the ODs of relevant single-agent and solvent controls were measured after 24 h. Synergy was determined by comparing actual OD in the presence of compound combinations with an expected value calculated using the multiplicative hypothesis. This method assumes that, in the absence of an interaction, each compound would decrease the OD of the cell culture by the same fraction in the presence of the other compound as it does when applied alone (that is, E=A×B/C, where E is the expected OD, A is OD when compound A is applied alone, B is OD when compound B is applied alone, and C is OD of the control culture (DMSO). In the presence of synergy, the actual OD value is lower than the expected OD. A paired t test was used to confirm statistical significance of this difference in three replicates of the experiment.

Experiment [3] in a line: Cell-free glucan staining (binding to purified yeast glucan). The settings on record: 0.125% (wt/vol) poacic acid, fluorescence. Here is the method: β-1,3-Glucan was stained with aniline blue (016-21302; Wako Chemicals) as described previously (Watanabe et al. 2001) with slight modification. Briefly, log-phase yeast cells (his3Δ) were cultured in YPD with poacic acid (125 μg/mL) at 25° C. Then, cells were collected at 0, 2, 4, and 6 h after treatment and stained with aniline blue without fixation as described previously (Okada et al. 2015). Cells mounted on a glass slide were exposed to UV for 30 s to bleach out poacic acid fluorescence before acquiring images. Staining of chitin or mannoproteins with calcofluor white (F3543; Sigma-Aldrich) or Alexa594-ConA (C11253; Life Technologies), respectively, was performed as described previously (Okada et al. 2015). For cell-free glucan staining, yeast glucan (G0331; Tokyo Chemical Industry) was suspended to 0.125% (wt/vol) poacic acid and observed under a fluorescent microscope using a regular DAPI filter set (Carl Zeiss).

The subject of the next experiment is P. sojae (field isolate). In words: Colony growth of P. sojae on plates. The format is cell-based, Phytophthora sojae. The settings on record: 0, 500, 1,000, 1,500 μg/mL, 7 d, P<0.01. On the procedure: To test inhibition in liquid culture, a dose curve of 0, 125, 250, and 500 μg/mL poacic acid in 100 mL potato dextrose broth (n=3) was used. Cultures of S. sclerotiorum strain 1980 were inoculated with 100 μL homogenized mycelia and grown at 25° C. for 48 h. The mycelia in the liquid media were dried and weighed. The growth inhibition of poacic acid on solid agar cultures (potato dextrose agar) was assessed by generating replicate plates (n=3) containing 0, 125, 250, and 500 μg/mL poacic acid. Plates were inoculated with an actively growing plug of S. sclerotiorum and grown at 25° C. The mycelial radial growth after 48 h was measured Inhibition of S. sclerotiorum in planta was tested by inoculating detached soybean leaves of the commercial variety Williams 82 with an agar plug of actively growing S. sclerotiorum mycelia. Leaves were treated one time before inoculation with either an aerosol spray of water with DMSO (control) or a 500 μg/mL solution of poacic acid. Leaves were incubated in a moist environment, and lesion development was monitored up to 120 h postinoculation. […] The growth inhibition of poacic acid was assessed at 0, 500, 1,000, and 1,500 μg/mL in replicate plates (n=3). […] Colony diameter was monitored for each treatment in a time-course experiment. […]

Where “and” joins values, the source holds several entries; their conditions need not be identical. Equal entries are not always repeated.

As for `COc1cc(/C=C/c2cc(/C=C/C(=O)O)cc(OC)c2O)ccc1O` [poacic acid, (E)-4-Hydroxy-3-{2-[(E)-4-hydroxy-3-methoxystyryl]}-5-methoxycinnamic acid], the “bioactivity against S. cerevisiae” value in the experiment with Saccharomyces cerevisiae [1] is “greatest antifungal activity”; with Saccharomyces cerevisiae [1] (listed as Poacic acid), “highest bioactivity”. The IC50 (commonly the concentration that inhibits the measured activity by half) with Saccharomyces cerevisiae [1] (Saccharomyces cerevisiae, read-out: IC50 (growth rate inhibition)) was 111 µg/mL and 324 µM. The “synergy with methyl methanesulfonate (MMS)” value with Saccharomyces cerevisiae [2] is listed as “not synergistic”. Also, the synergy with caspofungin result in the experiment with Saccharomyces cerevisiae [2] (poacic acid 125 μg/mL + caspofungin 12.5 ng/mL, 24 h, P<0.05) was “significant synergistic effects”. For the same compound, the synergy with fluconazole entry in the experiment on Saccharomyces cerevisiae [2] (poacic acid 125 μg/mL + fluconazole 3.8 μg/mL, 24 h, P<0.01) is “significant synergy”. The synergy with staurosporine result in the experiment with Saccharomyces cerevisiae [2] (poacic acid 125 μg/ml + staurosporine 100 ng/ml) is reported as “synergy”. In addition, in experiment [3], the “binding to purified yeast glucan” value is reported as “directly binds β-1,3-glucan”. The colony growth entry in the experiment with P. sojae (field isolate) was “significantly reduces colony growth”.
